Assays:
[1] = In vitro inhibition of calcium phosphate crystallization in human plasma (spectrophotometric assay); assay type: biochemical; conditions: 0-100 μM, 1.5 mM phosphate, 12.5 mM calcium, pH 7.4, absorbance 550 nm, slope 6-24 min, read-out: Relative Potency
Procedure, shortened: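 Human plasma spiked with compound (0-100 μM), centrifuged, then brought to final 1.5 mM phosphate and 12.5 mM calcium, pH 7.4. Absorbance at 550 nm read every 3 min for 30 min at rt; inhibition from slopes (6-24 min, absorbance vs log time) relative to blank plasma.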

tissue calcification = assay: In vivo tissue calcification (calcium content by ICP-OES) in vitamin D3-induced limb ischemia rat model; conditions: SD rats, vitamin D3 150,000 IU/kg s.c. D1-D3, 30 mg/kg s.c. daily D1-D5, sacrifice D5; for Inhibition of calcification (%) Femoral: femoral arteries; for Inhibition of calcification (%) Kidney: right kidney
Procedure: (§1) The effects of compounds 1, 6, 9, 14, 18, 31, and 39 over blood perfusion and tissue calcification after the inception of limb ischemia were tested using a rat model for a duration of 5 days. Limb ischemia was induced to all groups from D1 to D3 excepting the sham group, to which no ischemia was induced. The animals were administered placebo and active agent formulations from D1 to D5. Observations were taken at several points during the treatment from D0 to D5. All animals were weighed every day before treatment. Seventy-two male Sprague Dawley (SD) rats (Envigo Corp., Huntingdon, GB) weighing approximately 150-200 g were used. The rats were fed with a […]® Rod14-H diet ([…] GmbH, Soest, DE). The rats were divided in 9 groups, 8 animals per group, as follows: • Group 1-Control (Sham) • Group 2-Physiological saline solution • Group 3-Compound 1 • Group 4-Compound 6 • Group 5-Compound 9 • Group 6-Compound 14 • Group 7-Compound 18 • Group 8-Compound 31 • Group 9-Compound 39 Limb ischemia was induced in the rats of groups 2-9 by subcutaneous administration of 150,000 IU/kg vitamin D3 (cholecalciferol, Duphafral D3 1000; Zoetis Inc., Parsippany, NJ, US) in physiological saline solution (2 mL/kg) every day during D1 to D3. The rats of group 1 were not administered vitamin D3. The rats in groups 1 and 2 were administered 2 mL/kg of physiological saline solution daily from D1 to D5 via subcutaneous route. The animals in groups 3-9 were administered subcutaneously 30 mg/kg of compounds 1, 6, 9, 14, 18, 31, and 39, respectively, in physiological saline solution (2 mL/kg), every day from D1 to D5. All rats of groups 1-9 were sacrificed on D5 30 minutes after dosing for determining their Ca baseline values. The animals were anesthetized by isoflurane inhalation. The whole aorta, carotids, femoral arteries, heart, and right kidney of the subjects were collected for calcium content measurement. The tissues were lyophilized for 48-72 h and weighed. The lyophilized tissues were then digested using a 1:1 HNO3:HClO4 mixture in a dry bath incubator for 2-4 h at 180° C. The digested tissues were subsequently diluted using ultra-pure MilliQ® water (MilliporeSigma (Merck KGaA), Burlington, MA, US) to a final volume of 5 mL (i.e., for femoral arteries and carotids) of 10 mL (i.e., for heart, kidneys, and aorta). Calcium content was quantified via inductively coupled plasma optical emission spectrometry (ICP-OES) using an Optima 7300 DV ICP-OES System spectrometer (PerkinElmer, Inc., Waltham, MA, US) according to the manufacturer's instructions. Average blood perfusion recovery compared to vehicle and sham were also calculated. Recovery for sham was 100%. Blood perfusion recovery calculated was using the following equation: 100-((BP sham-BP new drug)/(BP sham-BP vehicle)*100).

blood perfusion = assay: In vivo blood perfusion (laser doppler perfusion imaging) in vitamin D3-induced limb ischemia rat model; conditions: average blood perfusion recovery vs vehicle and sham (sham 100%), SD rats, 30 mg/kg s.c. daily D1-D5
Procedure: as §1, with “to D5. Limb functional and ischemia status were evaluated by using a laser doppler perfusion imaging apparatus PeriCam PSI Normal Resolution (Perimed AB, Järfälla, SE) in all groups at D0 and D5. The perfusion difference and perfusion ratio were calculated by comparing the baseline and either D0 or D5 readings for each group. In addition, the blood perfusion ratio of each treatment group (i.e., groups 2 to 9) to sham group was also calculated. All rats” for “to D5. All rats”

O=C([O-])CCCCCO[C@@H]1[C@@H](OP(=O)([O-])[O-])[C@H](OCCCCCC(=O)[O-])[C@@H](OP(=O)([O-])[O-])[C@@H](OP(=O)([O-])[O-])[C@H]1OP(=O)([O-])[O-].[Na+].[Na+].[Na+].[Na+].[Na+].[Na+].[Na+].[Na+].[Na+].[Na+] [Compound 18, 4,6-O-bis(5-carboxypentyl)-myo-inositol-1,2,3,5-tetrakis(phosphate) decasodium salt]
EC50 [1]: ≤ 5 µM
Inhibition of calcification (%) Aorta (tissue calcification): Under (Average inhibition percentage over or under 25% inhibition of calcification.)
Inhibition of calcification (%) Carotid (tissue calcification): Under (Average inhibition percentage over or under 25% inhibition of calcification.)
Inhibition of calcification (%) Femoral (tissue calcification): Under (Average inhibition percentage over or under 25% inhibition of calcification.)
Inhibition of calcification (%) Heart (tissue calcification): Over (Average inhibition percentage over or under 25% inhibition of calcification.)
Inhibition of calcification (%) Kidney (tissue calcification): Over (Average inhibition percentage over or under 25% inhibition of calcification.)
BP recovery (%) (blood perfusion): Over (Average blood perfusion recovery over or under 25%.)

COCCCCCO[C@@H]1[C@@H](OP(=O)([O-])[O-])[C@H](OCCCCCOC)[C@@H](OP(=O)([O-])[O-])[C@@H](OP(=O)([O-])[O-])[C@H]1OP(=O)([O-])[O-].[Na+].[Na+].[Na+].[Na+].[Na+].[Na+].[Na+].[Na+] [Compound 9, 4,6-O-bis(5-methoxypentyl)-myo-inositol-1,2,3,5-tetrakis(phosphate) octasodium salt]
EC50 [1]: ≤ 5 µM
Inhibition of calcification (%) Aorta (tissue calcification): Under (Average inhibition percentage over or under 25% inhibition of calcification.)
Inhibition of calcification (%) Carotid (tissue calcification): Under (Average inhibition percentage over or under 25% inhibition of calcification.)
Inhibition of calcification (%) Femoral (tissue calcification): Over (Average inhibition percentage over or under 25% inhibition of calcification.)
Inhibition of calcification (%) Heart (tissue calcification): Over (Average inhibition percentage over or under 25% inhibition of calcification.)
Inhibition of calcification (%) Kidney (tissue calcification): Over (Average inhibition percentage over or under 25% inhibition of calcification.)
BP recovery (%) (blood perfusion): Over (Average blood perfusion recovery over or under 25%.)

NCCCCCO[C@@H]1[C@@H](OP(=O)([O-])[O-])[C@H](OCCCCCN)[C@@H](OP(=O)([O-])[O-])[C@@H](OP(=O)([O-])[O-])[C@H]1OP(=O)([O-])[O-].[Na+].[Na+].[Na+].[Na+].[Na+].[Na+].[Na+].[Na+] [Compound 14, 4,6-O-bis(5-aminopentyl)-myo-inositol-1,2,3,5-tetrakis(phosphate) octasodium salt]
EC50 [1]: ≤ 5 µM
Inhibition of calcification (%) Aorta (tissue calcification): Under (Average inhibition percentage over or under 25% inhibition of calcification.)
Inhibition of calcification (%) Carotid (tissue calcification): Under (Average inhibition percentage over or under 25% inhibition of calcification.)
Inhibition of calcification (%) Femoral (tissue calcification): Over (Average inhibition percentage over or under 25% inhibition of calcification.)
Inhibition of calcification (%) Heart (tissue calcification): Over (Average inhibition percentage over or under 25% inhibition of calcification.)
Inhibition of calcification (%) Kidney (tissue calcification): Over (Average inhibition percentage over or under 25% inhibition of calcification.)
BP recovery (%) (blood perfusion): Over (Average blood perfusion recovery over or under 25%.)

O=C([O-])CCn1cc(CO[C@@H]2[C@@H](OP(=O)([O-])[O-])[C@H](OCc3cn(CCC(=O)[O-])nn3)[C@@H](OP(=O)([O-])[O-])[C@@H](OP(=O)([O-])[O-])[C@H]2OP(=O)([O-])[O-])nn1.[Na+].[Na+].[Na+].[Na+].[Na+].[Na+].[Na+].[Na+].[Na+].[Na+] [Compound 31, 4,6-O-bis((1-(2-carboxyethyl)-1H-1,2,3-triazol-4-yl)methyl)-myo-inositol-1,2,3,5-tetrakis(phosphate) decasodium salt]
EC50 [1]: ≤ 5 µM
Inhibition of calcification (%) Aorta (tissue calcification): Over (Average inhibition percentage over or under 25% inhibition of calcification.)
Inhibition of calcification (%) Carotid (tissue calcification): Under (Average inhibition percentage over or under 25% inhibition of calcification.)
Inhibition of calcification (%) Femoral (tissue calcification): Over (Average inhibition percentage over or under 25% inhibition of calcification.)
Inhibition of calcification (%) Heart (tissue calcification): Over (Average inhibition percentage over or under 25% inhibition of calcification.)
Inhibition of calcification (%) Kidney (tissue calcification): Over (Average inhibition percentage over or under 25% inhibition of calcification.)
BP recovery (%) (blood perfusion): Over (Average blood perfusion recovery over or under 25%.)

Source: patent US20240109924A1, “IP4-4,6 SUBSTITUTED DERIVATIVE COMPOUNDS” (SANIFIT THERAPEUTICS, S.A., priority 2021, published 2024)
